Measured values taken from US11523607B2, “Sperm storage media comprising MHY 1485 for enhancing sperm quality and function” (UNIVERSIDADE DO PORTO, priority 2017, dated 2022).

Columns and labels:
Format in all cases: cell-based
Human spermatozoa [1] = assay: Human spermatozoa DNA fragmentation after storage (Halosperm kit); details: 2 μg/mL, 37° C., 120 minutes storage
Procedure: (§1) FIG. 5—Human spermatozoa DNA fragmentation after storage for 120 minutes at 37° C. Spermatozoa were stored in Sperm Preparation Medium (ORIGIO, Måløv, Denmark) not supplemented (Control) or supplemented with an mTOR activator (MHY 1485). Spermatozoa were also incubated with an mTOR inhibitor (Rapamycin; Rap) as a negative control. DNA fragmentation was assessed using a Halosperm G2 kit (HALOTECH, Madrid, Spain). Results are presented as mean±standard error of the mean (n=12); Significant results (P<0.05) are indicated as *-vs. Control.
(§2) We evaluated the use of an mTOR activator (MHY 1485) as an additive during sperm storage at 37° C. […] We assessed key sperm quality parameters, namely sperm viability and sperm motility, using standard methods, as described by the guidelines of the World Health Organization, with the supervision of a certified embryologist. We also evaluated the oxidative damages to sperm DNA (DNA fragmentation), proteins (protein carbonylation) and lipids (lipid peroxidation). Sperm DNA fragmentation was assessed using the Halosperm® kit (Halotech DNA SL, Madrid, Spain). Sperm protein carbonylation and lipid peroxidation were evaluated using specific antibodies (ABCAM®, Cambridge, USA) raised against 2,4-dinitrophenol groups and anti-4-hydroxynonenal groups (respectively). […]

Human spermatozoa [2] = assay: Human spermatozoa metabolism during storage (glucose consumption, lactate production by 1H-NMR); details: 2 μg/mL, 37° C.
Procedure: as §1, with “3—Human” for “5—Human”, “metabolism during” for “DNA fragmentation after”, “Sperm glucose consumption and lactate production were” for “DNA fragmentation was”, “by 1H nuclear magnetic resonance.” for “using a Halosperm G2 kit (HALOTECH, Madrid, Spain).”
We evaluated the use of an mTOR activator (MHY 1485) as an additive during sperm storage at 37° C. We added the mTOR activator (at a concentration of 2 μg/mL) to a commercial sperm storage medium (Sperm Preparation Medium®; Origio, Malay, Denmark) and stored the spermatozoa suspension (2 million spermatozoa per mL) in microtubes (at 37° C. in a 5% CO2 incubator) for up to 120 minutes, evaluating key parameters of quality and the degree of oxidative damages to those cells at regular intervals (0, 30 and 120 minutes). We assessed key sperm quality parameters, namely sperm viability and sperm motility, using standard methods, as described by the guidelines of the World Health Organization, with the supervision of a certified embryologist. We also evaluated the oxidative damages to sperm DNA (DNA fragmentation), proteins (protein carbonylation) and lipids (lipid peroxidation). Sperm DNA fragmentation was assessed using the Halosperm® kit (Halotech DNA SL, Madrid, Spain). Sperm protein carbonylation and lipid peroxidation were evaluated using specific antibodies (ABCAM®, Cambridge, USA) raised against 2,4-dinitrophenol groups and anti-4-hydroxynonenal groups (respectively). The metabolic alterations of spermatozoa were also evaluated by means of the proton magnetic resonance technique (1H-NMR), using a Varian 600 MHz spectrometer equipped with a 3 mm indirect detection probe with z-gradient (Varian, Palo Alto, USA). At the end of the storage, we evaluated the capacitation potential of the spermatozoa, by incubating the cells in a commercial medium (Lifeglobal®, Guilford, USA) and assessing the 3-nitrotyrosine levels using specific antibodies (ABCAM®, Cambridge, USA). An mTOR inhibitor (Rapamycin at a concentration of 0,1 μg/mL) was used as a negative control.

Human spermatozoa [3] = assay: Human spermatozoa lipid peroxidation after storage (immunoblot); details: 2 μg/mL, 37° C., 120 minutes storage
Procedure: (§3) FIG. 6—Human spermatozoa oxidative damage to proteins (carbonylation) and lipids (peroxidation) after storage for 120 minutes at 37° C. Spermatozoa were stored in Sperm Preparation Medium (ORIGIO, Måløv, Denmark) not supplemented (Control) or supplemented with an mTOR activator (MHY 1485). Spermatozoa were also incubated with an mTOR inhibitor (Rapamycin; Rap) as a negative control. Protein carbonylation was assessed by immunobloting a specific @DNP antibody (SigmaAldrich, St. Louis, Mo., USA). Lipid peroxidation was assessed by immunobloting a specific @HNE antibody (Merck Millipore, Temecula, USA). […]
as §2

Human spermatozoa [4] = assay: Human spermatozoa viability after storage (eosin-nigrosin staining); details: 2 μg/mL in Sperm Preparation Medium, 37° C.
Procedure: (§4) FIG. 1—Human spermatozoa viability after storage during 120 minutes at 37° C. Spermatozoa were stored in Sperm Preparation Medium (ORIGIO, Måløv, Denmark) not supplemented (Control) or supplemented with an mTOR activator (MHY 1485). Spermatozoa were also incubated with an mTOR inhibitor (Rapamycin; Rap) as a negative control. Viability was assessed by the eosin-nigrosin staining method. Results are presented as mean±standard error of the mean (n=12); Significant results (P<0.05) are indicated as *-vs. Control.
as §2

Human spermatozoa [5] = assay: Human spermatozoa protein carbonylation after storage (immunoblot); details: 2 μg/mL, 37° C., 120 minutes storage
Procedure: as §3, §2

Human spermatozoa [6] = assay: Human spermatozoa capacitation after storage; details: 2 μg/mL in Sperm Preparation Medium, 37° C.
Procedure: as §4, with “4—Human” for “1—Human”, “capacitation” for “viability”, “for” for “during”, “Sperm capacitation” for “Viability”, “evaluating sperm phosphotyrosine levels after 180 minutes incubation in Sperm Capacitation Medium (LifeGlobal Europe, Brussels, Belgium).” for “the eosin-nigrosin staining method.”
as §2

Human spermatozoa [7] = assay: Human spermatozoa motility after storage; details: 2 μg/mL in Sperm Preparation Medium, 37° C.
Procedure: as §4, with “2—Human” for “1—Human”, “motility” for “viability”, “control.” for “control. Viability was assessed by the eosin-nigrosin staining method.”
as §2

O=[N+]([O-])c1ccc(Nc2nc(N3CCOCC3)nc(N3CCOCC3)n2)cc1 [MHY 1485]
sperm DNA integrity (DNA fragmentation) (Human spermatozoa [1]): DNA remaining fully intact | consumption of hexoses (Human spermatozoa [2]; 30 minutes storage): no differences were observed | production of lactate (Human spermatozoa [2]; 30 minutes storage): no differences were observed | glucose consumption (Human spermatozoa [2]; 120 minutes storage): maintained | lactate production (Human spermatozoa [2]; 120 minutes storage): increased | lipid oxidative damage (lipid peroxidation) (Human spermatozoa [3]): not increased | percentage of viable sperm (Human spermatozoa [4]; 30 minutes storage, vs time zero): maintained the percentage of viable sperm at similar levels as those of time zero | sperm viability (Human spermatozoa [4]; 120 minutes storage): capable to preserve sperm viability | sperm protein oxidative damage (protein carbonylation) (Human spermatozoa [5]): not increased | capacitation potential (Human spermatozoa [6]; 120 minutes storage): capable to preserve sperm viability and its capacitation potential | capacitation potential (Human spermatozoa [6]; during storage): sustain its capacitation potential | spermatozoa motility (Human spermatozoa [7]; 120 minutes storage): sustaining a higher motility | spermatozoa motility (Human spermatozoa [7]; during storage): capable to maintain sperm motile
